Measured values from the NIST ThermoML archive (doi:10.1021/je050006+).
± gives the expanded uncertainty stated by the source.

Conditions: 101.33 kPa, Liquid

mass density (283.15 K) [kg/m3]	speed of sound (283.15 K) [m/s]	mass density (298.15 K) [kg/m3]	speed of sound (298.15 K) [m/s]	mass density (313.15 K) [kg/m3]	speed of sound (313.15 K) [m/s]	SMILES
797.94 ± 0.45	1195.2 ± 3.2	785.12 ± 0.47	1143.3 ± 3.1	772.53 ± 0.49	1093.8 ± 3	CCO [ethanol]
879.07 ± 0.55	1356.8 ± 3.7	866.97 ± 0.55	1298.7 ± 3.5	855.5 ± 0.56	1232.8 ± 3.4	C=C1CCC2CC1C2(C)C (stereo not drawn) [β-pinene]
811.48 ± 0.59	1257.9 ± 3.5	799.66 ± 0.6	1206 ± 3.4	787.76 ± 0.61	1155.1 ± 3.3	CCCO [propan-1-ol]
